Experiments:
Format in all cases: physicochemical
Solubility (qualitative) = conditions: PF6− salt; e.g. MeCN, Me2CO, DMF
[1] = Transient absorption (fsTA/nsTA) and time-resolved fluorescence spectroscopy; conditions: in MeCN; for non-radiative decay rate constant kNR: kNR = kobs(1 − ΦF); for radiative decay rate constant kR: kR = kobsΦF
From the text: The excited-state properties of these quadrupolar dyes were investigated using transient absorption (TA) spectroscopy. The TA data of dyes 1-4 and 6 in MeCN with lex=350 nm (FIGS. 9-12 and 15) show similar spectra with the same general electronic evolution, though with differing kinetics. Following excitation, strong excited-state absorption features appear between ˜450-500 nm along with a strong single peak in the near-infrared region, both of which are associated with Sn←S1 absorptions. The visible bands redshift over the following ˜100 ps, while the near-infrared band peaks first blueshift in the initial ˜10 ps before settling. These near-infrared absorption bands are similar to those observed^59,60 in extended bipyridinium compounds. Following these shifts, the excited states decay via emission with lifetimes between 3-4 ns as confirmed by time-resolved fluorescence (TRF) spectroscopy. The spectral shape of the transient species is generally maintained throughout their lifetimes, implying that the dynamics in each dye all occur on a single electronic excited state (S1) prior to emission. The spectral shifts at early times may arise due to excited-state symmetry breaking^77-78 in the quadrupolar dyes, wherein fluctuations in the instantaneous electrostatic environment afforded by the solvent transiently favor wavefunction localization on one side of the symmetric molecule, creating an excited state with a large dipole moment that is associated with the Stokes shift observed^79 in the fluorescence spectra. This localization can lead to changes in the transient absorption spectra as a result of the breakdown^42,80 of the Laporte rule. The shifts at longer times may arise from solvent or structural relaxation of the dyes.
Steady-state and time-resolved emission spectra for dyes 1-6, 7·2PF6 and 9·4PF6 were acquired using a HORIBA Fluorolog-3 spectrofluorometer, equipped with a time-correlated single photon counting (TCSPC) module (diode laser excitation at λ=375 nm) and an integrating sphere, which was used for absolute photo-luminescence quantum yield determinations. Picosecond time-resolved fluorescence measurements were recorded using a commercial direct-diode-pumped 100 kHz amplifier (Spirit 1040-HE, Spectra-Physics), producing a fundamental beam of 1040 nm (350 fs, 12 W) which was used to pump a non-collinear optical parametric amplifier (Spirit-NOPA, SpectraPhysics) capable of delivering tunable, high-repetition-rate pulses with pulse widths as short as sub-20 fs. Dyes 1-6, 7·2PF6 and 9·4PF6 were excited with 350 nm, 2 nJ laser pulses. Fluorescence was detected using a Hamamatsu C4780 Streakscope as previously described in the literature. Samples were prepared in 2-mm quartz cuvettes. All data were acquired in the single-photon-counting mode using the Hamamatsu HPD-TA software. The temporal resolution was approximately 2% of the sweep window. Single wavelength kinetic analysis was performed using a nonlinear least-squares fit to a sum of exponentials convoluted with an instrument response function. Visible and near-infrared femtosecond and nanosecond transient absorption (fsTA and nsTA, respectively) spectroscopies were performed following descriptions already recorded in the literature. The 330 nm, ˜100 fs pump pulses were generated at 1 μJ per pulse using a commercial collinear optical parametric amplifier (TOPAS-Prime, Light-Conversion, Ltd.); 414-nm pump pulses were obtained by second-harmonic generation of the 828 nm fundamental. The pump polarization was randomized using a commercial depolarizer (DPU-25-A, Thorlabs, Inc.) to eliminate any orientational dynamics resulting from the experiment. Spectra were collected on commercial spectrometers (customized Ultrafast Systems Helios and EOS spectrometers, for fsTA and nsTA, respectively) for each time window. All samples were stirred to avoid localized heating or degradation effects. The optical density was maintained at 0.6 for all samples. […]

[2] = Absolute fluorescence quantum yield (integrating sphere); conditions: in MeCN
Experimental: (§1) Fluorescent dyes were dissolved in the appropriate solvents to afford 1 mM solutions prior to spectroscopic analysis. A portion of 30 μL of a 1 mM solution was diluted by adding a selected solvent to a sample with a total volume of 3000 μL, affording a 1×10^−5 M solution. UV/Vis Absorption spectra were recorded in glass cuvettes on a UV-3600 Shimadzu spectrophotometer. Steady-state emission spectra were acquired in quartz cuvettes with optical path-lengths of 10 mm containing the solution being analyzed using a HORIBA Fluoromax4 spectrofluorometer, which was equipped with an integrating sphere for determining the absolute photoluminescence quantum yield.
Steady-state and time-resolved emission spectra for dyes 1-6, 7·2PF6 and 9·4PF6 were acquired using a HORIBA Fluorolog-3 spectrofluorometer, equipped with a time-correlated single photon counting (TCSPC) module (diode laser excitation at λ=375 nm) and an integrating sphere, which was used for absolute photo-luminescence quantum yield determinations. Picosecond time-resolved fluorescence measurements were recorded using a commercial direct-diode-pumped 100 kHz amplifier (Spirit 1040-HE, Spectra-Physics), producing a fundamental beam of 1040 nm (350 fs, 12 W) which was used to pump a non-collinear optical parametric amplifier (Spirit-NOPA, SpectraPhysics) capable of delivering tunable, high-repetition-rate pulses with pulse widths as short as sub-20 fs. Dyes 1-6, 7·2PF6 and 9·4PF6 were excited with 350 nm, 2 nJ laser pulses. Fluorescence was detected using a Hamamatsu C4780 Streakscope as previously described in the literature. Samples were prepared in 2-mm quartz cuvettes. All data were acquired in the single-photon-counting mode using the Hamamatsu HPD-TA software. The temporal resolution was approximately 2% of the sweep window. Single wavelength kinetic analysis was performed using a nonlinear least-squares fit to a sum of exponentials convoluted with an instrument response function. Visible and near-infrared femtosecond and nanosecond transient absorption (fsTA and nsTA, respectively) spectroscopies were performed following descriptions already recorded in the literature. The 330 nm, ˜100 fs pump pulses were generated at 1 μJ per pulse using a commercial collinear optical parametric amplifier (TOPAS-Prime, Light-Conversion, Ltd.); 414-nm pump pulses were obtained by second-harmonic generation of the 828 nm fundamental. The pump polarization was randomized using a commercial depolarizer (DPU-25-A, Thorlabs, Inc.) to eliminate any orientational dynamics resulting from the experiment. Spectra were collected on commercial spectrometers (customized Ultrafast Systems Helios and EOS spectrometers, for fsTA and nsTA, respectively) for each time window. All samples were stirred to avoid localized heating or degradation effects. The optical density was maintained at 0.6 for all samples.
Steady-state and time-resolved emission spectra for dyes 7·2PF6 and 9·4PF6 were acquired using a HORIBA Fluorolog-3 spectrofluorometer, equipped with a time-correlated single photon counting (TCSPC) module (diode laser excitation at =375 nm) and an integrating sphere, which was used for absolute photo-luminescence quantum yield determinations. Picosecond time-resolved fluorescence measurements were recorded using a commercial direct-diode-pumped 100 kHz amplifier (Spirit 1040-HE, Spectra-Physics), producing a fundamental beam of 1040 nm (350 fs, 12 W) which was used to pump a non-collinear optical parametric amplifier (Spirit-NOPA, SpectraPhysics) capable of delivering tunable, high-repetition-rate pulses with pulse widths as short as sub-20 fs. The samples 7·2PF6 and 9·4PF6 were excited with […], 2 nJ laser pulses. Fluorescence was detected using a Hamamatsu C4780 Streakscope as previously described in the literature.^71 Samples were prepared in 2-mm quartz cuvettes. All data were acquired in the single-photon-counting mode using the Hamamatsu HPD-TA software. […]

[3] = as above; conditions: 414 nm excitation
[4] = Transient absorption (fsTA/nsTA) and time-resolved fluorescence spectroscopy; conditions: in PhMe
[5] = Steady-state UV/Vis absorption and fluorescence emission spectra; conditions: THF, 10 μM
Experimental: Fluorescent dyes 1-6, 7·2PF6, 8·2PF6, 9·4PF6 and 9·4Cl were dissolved in THF (1-5), MeCN (6, 7·2PF6, 8·2PF6 and 9.4PF6) and H2O (9.4Cl), respectively, to afford 10 μM solutions prior to spectroscopic analysis. For comparison, their normalized (i) UV/Vis absorption (FIG. 2) and (ii) the fluorescence emission (FIG. 3) spectra of quadrupolar dyes are overlayed, displaying a large range of S1 absorbance and emission maxima, which rely highly on their quadrupolarity that is correlated to the electron-deficiency of the ARs.
as §1

Quantum Yield (ΦF) [2] | UV absorption band centre [5] | emission λem [5] | Structure (SMILES) | solubility in polar organic solvents (Solubility (qualitative)) | excited-state (emissive) lifetime [1] | rate constant k1 from TA data [1] | rate constant k2 from TA data [1] | rate constant k3 from TA data [1] | rate constant k4 from TA data [1] | non-radiative decay rate constant kNR [1] | radiative decay rate constant kR [1] | ΦF in the solid-state (powder) [3] | triplet state lifetime (diffusional quenching-limited) ([4]; deaerated solution) | CT state decay to triplet state ([4]; excited at 350 nm) | S1 state decay time ([4]; excited at 350 nm) | CT state decay back to the ground state ([1]; excited at 350 nm) | initially excited state (S1) decay time ([1]; excited at 350 nm) | non-radiative decay rate constant kNR ([1]; kobs = k1)
<0.005 | – | – | CCCCCCCCOc1cc(-c2ccc([N+](=O)[O-])cc2)c(OCCCCCCCC)cc1-c1ccc([N+](=O)[O-])cc1 [Dye 5] | – | – | (4.3 ± 0.3 ps)^−1 (ps)^−1 | (28 ± 2 ps)^−1 (ps)^−1 | (102.7 ± 0.3 ns)^−1 (ns)^−1 | – | – | <(0.9 ns)^−1 (ns)^−1 | – | 1 µs | 18 ns | 7.9±0.3 ps | 102 ns | 4.3±0.3 ps | >(4 ps)^−1 (ps)^−1
0.78 | – | – | CCCCCCCCOc1cc(-c2ccc(C(=O)OC)cc2)c(OCCCCCCCC)cc1-c1ccc(C(=O)OC)cc1 [Dye 4] | – | – | (0.7 ± 0.3 ps)^−1 (ps)^−1 | (132 ± 7 ps)^−1 (ps)^−1 | (3.80 ± 0.01 ns)^−1 (ns)^−1 | (210 ± 2 ns)^−1 (ns)^−1 | (17.3 ± 0.4 ns)^−1 (ns)^−1 | – | – | – | – | – | – | – | –
0.13 | 316 nm | 380 nm | CCCCCCCCOc1cc(-c2ccc(F)cc2)c(OCCCCCCCC)cc1-c1ccc(F)cc1 [Dye 1] | – | – | (5.4 ± 0.6 ps)^−1 (ps)^−1 | (83 ± 7 ps)^−1 (ps)^−1 | (3.38 ± 0.03 ns)^−1 (ns)^−1 | (155 ± 3 ns)^−1 (ns)^−1 | (3.89 ± 0.02 ns)^−1 (ns)^−1 | – | – | – | – | – | – | – | –
0.56 | – | – | CCCCCCCCOc1cc(-c2ccc(C(F)(F)F)cc2)c(OCCCCCCCC)cc1-c1ccc(C(F)(F)F)cc1 [Dye 2] | – | – | (1.4 ± 0.3 ps)^−1 (ps)^−1 | (85 ± 2 ps)^−1 (ps)^−1 | (3.16 ± 0.01 ns)^−1 (ns)^−1 | (150 ± 2 ns)^−1 (ns)^−1 | (7.2 ± 0.1 ns)^−1 (ns)^−1 | (5.64 ± 0.05 ns)^−1 (ns)^−1 | – | – | – | – | – | – | –
0.81 | – | – | CCCCCCCCOc1cc(-c2ccc(C#N)cc2)c(OCCCCCCCC)cc1-c1ccc(C#N)cc1 [Dye 3] | – | – | (0.8 ± 0.3 ps)^−1 (ps)^−1 | (99 ± 2 ps)^−1 (ps)^−1 | (4.23 ± 0.02 ns)^−1 (ns)^−1 | (314 ± 1 ns)^−1 (ns)^−1 | (22.3 ± 0.6 ns)^−1 (ns)^−1 | (5.22 ± 0.03 ns)^−1 (ns)^−1 | – | – | – | – | – | – | –

Structure (SMILES) | Quantum Yield (ΦF) [2] | UV absorption band centre [5] | emission λem [5] | solubility in polar organic solvents (Solubility (qualitative)) | excited-state (emissive) lifetime [1] | rate constant k1 from TA data [1] | rate constant k2 from TA data [1] | rate constant k3 from TA data [1] | rate constant k4 from TA data [1] | non-radiative decay rate constant kNR [1] | radiative decay rate constant kR [1] | ΦF in the solid-state (powder) [3] | triplet state lifetime (diffusional quenching-limited) ([4]; deaerated solution) | CT state decay to triplet state ([4]; excited at 350 nm) | S1 state decay time ([4]; excited at 350 nm) | CT state decay back to the ground state ([1]; excited at 350 nm) | initially excited state (S1) decay time ([1]; excited at 350 nm) | non-radiative decay rate constant kNR ([1]; kobs = k1)
COc1cc2c(OC)cc1-c1cc[n+](cc1)Cc1ccc(cc1)C[n+]1ccc(cc1)-c1cc(OC)c(cc1OC)-c1cc[n+](cc1)Cc1ccc(cc1)C[n+]1ccc-2cc1 [9·4PF6] | 0.28 | – | – | readily soluble | 3.45±0.01 ns | (1.4 ± 0.3 ps)^−1 (ps)^−1 | (188 ± 4 ps)^−1 (ps)^−1 | (3.45 ± 0.01 ns)^−1 (ns)^−1 | (450 ± 70 ns)^−1 (ns)^−1 | (4.79 ± 0.03 ns)^−1 (ns)^−1 | (12.3 ± 0.2 ns)^−1 (ns)^−1 | 0.030±0.005 | – | – | – | – | – | –
COc1cc(-c2ccncc2)c(OC)cc1-c1ccncc1 [Dye 6] | 0.63 | – | – | – | – | (0.6 ± 0.3 ps)^−1 (ps)^−1 | (52 ± 1 ps)^−1 (ps)^−1 | (4.05 ± 0.02 ns)^−1 (ns)^−1 | (163 ± 2 ns)^−1 (ns)^−1 | (11.0 ± 0.2 ns)^−1 (ns)^−1 | (6.43 ± 0.05 ns)^−1 (ns)^−1 | – | – | – | – | – | – | –
